2 compounds from publication PMC9977050, “Thymoquinone effect on the Dictyostelium discoideum model correlates with functional roles for glutathione S-transferases in eukaryotic proliferation, chemotaxis, and development” (PLOS ONE, 2023) can be followed below.

Each structure is given as a SMILES string.

What all share (assay): CDNB conjugation assay, absorbance at […] nm
Type in all cases: biochemical

The target in assay [1] is T1, rDdGSTA2 (Dictyostelium discoideum, UniProt Q556G3).
T1 construct: gene gsta2-1; purified recombinant
T1 sequence (Q556G3 2-198): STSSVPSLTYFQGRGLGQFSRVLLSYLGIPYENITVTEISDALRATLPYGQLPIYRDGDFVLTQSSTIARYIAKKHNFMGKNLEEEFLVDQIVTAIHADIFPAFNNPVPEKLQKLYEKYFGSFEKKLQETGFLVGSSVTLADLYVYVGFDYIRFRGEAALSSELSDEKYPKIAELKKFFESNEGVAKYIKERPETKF
The conditions noted are these: with GSH, 25°C.

The target in another assay is T2, rDdGSTA3 (Dictyostelium discoideum, UniProt Q54VI4).
T2 construct: gene gsta3; purified recombinant
T2 sequence (Q54VI4 2-204): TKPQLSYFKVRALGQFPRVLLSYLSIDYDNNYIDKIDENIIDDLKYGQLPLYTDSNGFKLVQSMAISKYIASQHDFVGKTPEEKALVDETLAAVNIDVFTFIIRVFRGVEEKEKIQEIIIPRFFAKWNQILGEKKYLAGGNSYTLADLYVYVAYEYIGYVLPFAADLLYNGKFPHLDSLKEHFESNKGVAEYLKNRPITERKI
The conditions noted are these: with GSH, 25°C.

The target in assay [2] is T1, rDdGSTA2. The settings on record: GSH and CDNB as substrates, 25°C; mode not determined; authors caution that thymoquinone may also bind GSH, CDNB or product.

As for `O=[N+]([O-])c1ccc(Cl)c([N+](=O)[O-])c1` [CDNB, 1-chloro-2,4-dinitrobenzene], the “CDNB conjugation assay, absorbance at 340 nm” value is given as “CDNB activity assays of purified, recombinant GSTs (rDdGSTA2, rDdGSTA3) were conducted” at rDdGSTA2 [1] and “CDNB activity assays of purified, recombinant GSTs (rDdGSTA2, rDdGSTA3) were conducted” on rDdGSTA3.

For `CC1=CC(=O)C(C(C)C)=CC1=O` [thymoquinone, 2-isopropyl-5-methylbenzo-1,4-quinone], the “% reduction of GS-DNB conjugate at 0.75 μM” value on rDdGSTA2 [2] was 61%.
